From patent publication US10022461B2, “Pyrrolo[2,3-C]pyridines as imaging agents for neurofibrilary tangles” (MERCK SHARP & DOHME CORP., priority 2014, dated 2018)

Target: tau (Homo sapiens, UniProt P10636)
Assay: displacement tau binding assay in AD brain homogenates with [^3H]-6
Settings: Table 1, displacement of [^3H]-6 (0.25 nM)
Method: The frozen human brain samples of Alzheimer's disease (AD) were purchased from Analytic Biological Services Inc. They were postmortem tissue from donors with clinical diagnosis of AD. As much of the white matter was dissected out of the frontal cortex in order to enrich the tissue preparations for gray matter. Brain homogenates of gray matter enriched frontal cortex were prepared by homogenizing the tissue in ice cold Phosphate Buffered Saline (PBS), pH 7.4 at 80 mg wet weight tissue per 1 mL for 45 seconds at 4° C. on setting 16 of Polytron. The homogenate was further diluted with ice cold PBS to 30 mg wet weight tissue per 1 mL and homogenized for an additional minute as described above. Homogenates were aliquoted in 5 ml/tube and store at −70° C. until use. […] Brain homogenates were diluted to 0.5 mg/mL from original 30 mg/mL volume in Assay Buffer, and 200 μl were added to the assay plate for a final concentration of 100 μg wet weight/assay tube. [^3H]-6 was prepared at […] final concentration in Assay Buffer plus 20% DMSO and 25 μl was added to the assay plate for final assay concentration of 0.25 nM. The assay plate was incubated at room temperature (25° C.) for 90 minutes. […] Filter plates were dried for 1 hour in a vacuum oven and 50 μl/well MicroScint-20 were added. Plates were counted 1 min per well by Packard Topcount. Total amount of radioligand used in the assay was determined by counting 25 μl of 10× ligand stock. […] Tau Ki data for representative compounds of the invention are found in Table 1.

Chain of tau (P10636 2-758 limits assumed): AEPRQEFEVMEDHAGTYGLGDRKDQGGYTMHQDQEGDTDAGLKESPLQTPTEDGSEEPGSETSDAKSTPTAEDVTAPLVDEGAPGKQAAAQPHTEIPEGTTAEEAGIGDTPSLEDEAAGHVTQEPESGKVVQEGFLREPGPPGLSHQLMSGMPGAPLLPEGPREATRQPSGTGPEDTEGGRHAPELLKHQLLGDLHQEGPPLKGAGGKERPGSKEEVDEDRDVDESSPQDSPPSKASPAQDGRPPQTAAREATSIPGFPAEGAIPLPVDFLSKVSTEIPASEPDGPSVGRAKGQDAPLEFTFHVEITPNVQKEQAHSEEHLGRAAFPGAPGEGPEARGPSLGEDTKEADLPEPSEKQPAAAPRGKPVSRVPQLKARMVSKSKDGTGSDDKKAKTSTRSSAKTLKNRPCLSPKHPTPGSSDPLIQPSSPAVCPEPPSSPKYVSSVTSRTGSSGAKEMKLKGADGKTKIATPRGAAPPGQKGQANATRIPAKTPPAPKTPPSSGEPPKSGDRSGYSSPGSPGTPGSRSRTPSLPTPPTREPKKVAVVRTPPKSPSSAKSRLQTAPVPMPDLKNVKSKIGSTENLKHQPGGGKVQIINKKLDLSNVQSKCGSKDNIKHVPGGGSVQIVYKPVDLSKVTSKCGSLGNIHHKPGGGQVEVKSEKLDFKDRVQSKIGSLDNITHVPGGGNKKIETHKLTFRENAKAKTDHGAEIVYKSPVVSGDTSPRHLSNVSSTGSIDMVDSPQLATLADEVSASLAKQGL

SMILES	Ki [nM]
c1ccc2cc(-n3ccc4ccncc43)ncc2c1 [Compound 6, 3-(1H-pyrrolo[2,3-c]pyridin-1-yl)isoquinoline]	0.54
Nc1cccc2cnc(-n3ccc4ccncc43)cc12 [Compound 11-5, 3-(1H-pyrrolo[2,3-c]pyridin-1-yl)isoquinolin-5-amine]	0.4
Nc1ccc2cc(-n3ccc4ccncc43)ncc2c1 [Compound 12, 3-(1H-pyrrolo[2,3-c]pyridin-1-yl)isoquinolin-7-amine]	0.29
CN(CCF)c1ccc2cnc(-n3ccc4ccncc43)cc2c1 [Compound 14, N-(2-fluoroethyl)-N-methyl-3-(1H-pyrrolo[2,3-c]pyridin-1-yl)isoquinolin-6-amine]	2.28
Nc1c(F)ccc2cnc(-n3ccc4ccncc43)cc12 [Compound 18, 6-fluoro-3-(1H-pyrrolo[2,3-c]pyridin-1-yl)isoquinolin-5-amine]	0.43
Cn1ccc2cc(-n3ccc4ccncc43)ncc21 [Compound 19, 1′-methyl-1,5′-bi(1H-pyrrolo[2,3-c]pyridine)]	0.62
Ic1ccc2cnc(-n3ccc4ccncc43)cc2c1 [Compound 20, 6-iodo-3-(1H-pyrrolo[2,3-c]pyridin-1-yl)isoquinoline]	0.75
CC#Cc1cnc(-n2ccc3ccncc32)cc1F [Compound 22, 1-(4-fluoro-5-(prop-1-ynyl)pyridin-2-yl)-1H-pyrrolo[2,3-c]pyridine]	1.43
FCOc1ccc2nc(-n3ccc4ccncc43)ncc2c1 [Compound 24, 6-(fluoromethoxy)-2-(1H-pyrrolo[2,3-c]pyridin-1-yl)quinazoline]	12.8
Oc1ccc2nc(-n3ccc4ccncc43)ncc2c1 [Compound 24-5, 2-(1H-pyrrolo[2,3-c]pyridin-1-yl)quinazolin-6-ol]	11.1
Fc1nccc2cnc(-n3ccc4ccncc43)cc12 [Compound 25, 1-fluoro-7-(1H-pyrrolo[2,3-c]pyridin-1-yl)-2,6-naphthyridine]	14.1
c1cc2cnc(-n3ccc4ccncc43)cc2cn1 [Compound 26, 3-(1H-pyrrolo[2,3-c]pyridin-1-yl)-2,6-naphthyridine]	2.27
C=Cc1cc(-n2ccc3ccncc32)ncc1C#CCF [Compound 30, 1-(5-(3-fluoroprop-1-ynyl)-4-vinylpyridin-2-yl)-1H-pyrrolo[2,3-c]pyridine]	2.44
Cc1cc(-n2ccc3ccncc32)ncc1OCCF [Compound 32, 1-(5-(2-fluoroethoxy)-4-methylpyridin-2-yl)-1H-pyrrolo[2,3-c]pyridine]	2.98
COc1ccc(NC(=O)c2ccc(-n3ccc4ccncc43)nc2)cc1 [Compound 34, N-(4-methoxyphenyl)-6-(1H-pyrrolo[2,3-c]pyridin-1-yl)nicotinamide]	3.83
FCCCNc1ccc(-n2ccc3ccncc32)nc1 [Compound 35, N-(3-fluoropropyl)-6-(1H-pyrrolo[2,3-c]pyridin-1-yl)pyridin-3-amine]	3.19
FCCNc1ccc(-n2ccc3ccncc32)nc1 [Compound 36, N-(2-fluoroethyl)-6-(1H-pyrrolo[2,3-c]pyridin-1-yl)pyridin-3-amine]	4.96
Fc1ccc2cnc(-n3ccc4ccncc43)cc2n1 [Compound 40, 2-fluoro-7-(1H-pyrrolo[2,3-c]pyridin-1-yl)-1,6-naphthyridine]	52.7

Now from value to molecule:

Ki [nM]	SMILES
1.65	FCC#Cc1ccc(-n2ccc3ccncc32)nc1 [Compound 7, 1-(5-(3-fluoroprop-1-ynyl)pyridin-2-yl)-1H-pyrrolo[2,3-c]pyridine]
0.48	c1cc2ccn(-c3cc4cc[nH]c4cn3)c2cn1 [Compound 8, 1-(1H-pyrrolo[2,3-c]pyridin-5-yl)-1H-pyrrolo[2,3-c]pyridine]
0.22	Fc1ccc2cnc(-n3ccc4ccncc43)cc2c1 [Compound 9, 6-fluoro-3-(1H-pyrrolo[2,3-c]pyridin-1-yl)isoquinoline]
0.29	COc1ccc2cc(-n3ccc4ccncc43)ncc2c1 [Compound 13, 7-methoxy-3-(1H-pyrrolo[2,3-c]pyridin-1-yl)isoquinoline]
0.33	CNc1ccc2cnc(-n3ccc4ccncc43)cc2c1 [Compound 14-1, N-methyl-3-(1H-pyrrolo[2,3-c]pyridin-1-yl)isoquinolin-6-amine]
0.53	Oc1ccc2cc(-n3ccc4ccncc43)ncc2c1 [Compound 15, 3-(1H-pyrrolo[2,3-c]pyridin-1-yl)isoquinolin-7-ol]
0.41	FCCOc1ccc2cc(-n3ccc4ccncc43)ncc2c1 [Compound 16, 7-(2-fluoroethoxy)-3-(1H-pyrrolo[2,3-c]pyridin-1-yl)isoquinoline]
0.43	FCOc1ccc2cc(-n3ccc4ccncc43)ncc2c1 [Compound 17, 7-(fluoromethoxy)-3-(1H-pyrrolo[2,3-c]pyridin-1-yl)isoquinoline]
4.1	CC#Cc1cnc(-n2ccc3ccncc32)cc1CF [Compound 21, 1-(4-(fluoromethyl)-5-(prop-1-ynyl)pyridin-2-yl)-1H-pyrrolo[2,3-c]pyridine]
3.35	CC#Cc1cnc(-n2ccc3ccncc32)cc1CO [Compound 21-4, (5-(prop-1-ynyl)-2-(1H-pyrrolo[2,3-c]pyridin-1-yl)pyridin-4-yl)methanol]
2.1	Cc1cc2cnc(-n3ccc4ccncc43)cc2o1 [Compound 23, 2-methyl-6-(1H-pyrrolo[2,3-c]pyridin-1-yl)furo[3,2-c]pyridine]
1.55	COc1ccc2nc(-n3ccc4ccncc43)ncc2c1 [Compound 24-4, 6-methoxy-2-(1H-pyrrolo[2,3-c]pyridin-1-yl)quinazoline]
2.41	FCCn1ccc(-c2cnc(-n3ccc4ccncc43)nc2)n1 [Compound 29, 1-(5-(1-(2-fluoroethyl)-1H-pyrazol-3-yl)pyrimidin-2-yl)-1H-pyrrolo[2,3-c]pyridine]
2.88	ClCCC1CCN(c2ccc(-n3ccc4ccncc43)nc2)CC1 [Compound 31, 1-(5-(4-(2-chloroethyl)piperidin-1-yl)pyridin-2-yl)-1H-pyrrolo[2,3-c]pyridine]
3.54	OCCC1CCN(c2ccc(-n3ccc4ccncc43)nc2)CC1 [Compound 31-1, 2-(1-(6-(1H-pyrrolo[2,3-c]pyridin-1-yl)pyridin-3-yl)piperidin-4-yl)ethanol]
3.34	CC#Cc1cnc(-n2ccc3ccncc32)cc1OC [Compound 33, 1-(4-methoxy-5-(prop-1-ynyl)pyridin-2-yl)-1H-pyrrolo[2,3-c]pyridine]
19.7	Fc1nc(-n2ccc3ccncc32)ccc1-c1cccnc1 [Compound 37, 1-(2-fluoro-3,3′-bipyridin-6-yl)-1H-pyrrolo[2,3-c]pyridine]
52.3	Fc1cc2ccn(-c3cc4ccccc4cn3)c2cn1 [Compound 38, 3-(5-fluoro-1H-pyrrolo[2,3-c]pyridin-1-yl)isoquinoline]
10.8	c1cc2ccn(-c3cc4c(cn3)CCCN4)c2cn1 [Compound 39, 7-(1H-pyrrolo[2,3-c]pyridin-1-yl)-1,2,3,4-tetrahydro-1,6-naphthyridine]
8.8	c1cc2ccn(-c3ccc(-c4nc[nH]n4)cn3)c2cn1 [Compound 41, 1-(5-(1H-1,2,4-triazol-3-yl)pyridin-2-yl)-1H-pyrrolo[2,3-c]pyridine]
71.1	OC1CCN(c2ccc(-n3ccc4ccncc43)nc2)CC1 [Compound 42, 1-(6-(1H-pyrrolo[2,3-c]pyridin-1-yl)pyridin-3-yl)piperidin-4-ol]
